Experimental data: paper PMC6720511, “Synthesis and biological evaluation of novel N-(piperazin-1-yl)alkyl-1H-dibenzo[a,c]carbazole derivatives of dehydroabietic acid as potential MEK inhibitors” (Journal of Enzyme Inhibition and Medicinal Chemistry, 2019)
Like-named read-outs stand apart in the source and are kept apart here.

Tests used:
[1] = tested on: normal hepatocyte cell line (QSG-7701); assay: MTT cytotoxic assay on normal hepatocytes; assay type: cell-based, human; settings: mean value ± SD
Method: (§1) Three human hepatocarcinoma cell lines (SMMC-7721, HepG2 and Hep3B) and normal hepatocyte cell line (QSG-7701) were maintained in Dulbecco Modified Eagle Medium (DMEM) containing 4.0 mM L-Glutamine and 4500 mg/l Glucose supplemented with 10% (v/v) foetalbovine serum (FBS) and 100 unites/mL penicillin/streptomycin at 37 °C in humidified atmosphere of 5% CO2 and 95% air.
(§2) The in vitro cytotoxic activities of the carbazole derivatives of DHA were evaluated against three human hepatocarcinoma cell lines (SMMC-7721, HepG2 and Hep3B) and a normal human hepatocyte cell line (QSG-7701) via the MTT colorimetric method. Briefly, SMMC-7721, HepG2, Hep3B and QSG-7701 cells were harvested at log phase of growth and seeded in 96-well plates (100 µL/well at a density of 2 × 10^5 cells/mL). After 24 h incubation at 37 °C and 5% CO2 to allow cell attachment, cultures were exposed to various concentrations of the isolated compounds for 48 h. Finally, MTT solution (2.5 mg/mL in PBS) was added (40 µL/well). Plates were further incubated for 4 h at 37 °C, and the formazan crystals formed were dissolved by adding 150 µL/well of DMSO. Absorption at 570 nm was measured with an ELISA plate reader. […] Doxorubicin was co-assayed as positive control.

HepG2 = assay: MTT cytotoxic assay; assay type: cell-based, human; settings: mean value ± SD
Method: as §1, §2

SMMC-7721 = assay: MTT cytotoxic assay; assay type: cell-based, human; settings: mean value ± SD
Method: as §1, §2

Hep3B = assay: MTT cytotoxic assay; assay type: cell-based, human; settings: 48 h, mean value ± SD
Method: as §1, §2

[2] = tested on: three human hepatocarcinoma cell lines (SMMC-7721, HepG2 and Hep3B); assay: MTT cytotoxic assay, statements over the three cancer cell lines; assay type: cell-based; settings: for cytotoxic activity against three cancer cell lines (in words): SMMC-7721, HepG2 and Hep3B
Method: as §1, §2

[3] = at least one of SMMC-7721, HepG2, Hep3B, read-out: IC50 against at least one hepatocarcinoma cell line
[4] = over SMMC-7721, HepG2 and Hep3B, read-out: IC50 against the three cancer cell lines
[5] = Homo sapiens, at least one of SMMC-7721, HepG2, Hep3B, read-out: IC50 against at least one hepatocarcinoma cell line

Molecule: 2,3,4,4a,9,13c-Hexahydro-7-isopropyl-1,4a-dimethyl-9–(2-(1,4-diazepan-1-yl) butyl)-1H-dibenzo[a,c]carbazole-1-carboxylic acid methyl ester [Compound 8d]
- IC50 ([1]; 48 h): 43.6 ± 4.03 µM
- IC50 (HepG2; 48 h): 11.5 ± 1.23 µM
- IC50 (SMMC-7721; 48 h): 12.8 ± 0.84 µM
- IC50 (Hep3B): 14.4 ± 0.77 µM

Molecule: 2,3,4,4a,9,13c-Hexahydro-7-isopropyl-1,4a-dimethyl-9–(2-(1,4-diazepan-1-yl) propyl)-1H-dibenzo[a,c]carbazole-1-carboxylic acid methyl ester [Compound 7d]
- IC50 ([1]; 48 h): 32.8 ± 3.22 µM
- IC50 [2, 3]: < 10 µM
- IC50 (HepG2; 48 h): 8.68 ± 1.13 µM
- IC50 (SMMC-7721; 48 h): 10.3 ± 1.02 µM
- IC50 (Hep3B): 12.8 ± 0.67 µM

Molecule: 2,3,4,4a,9,13c-Hexahydro-7-isopropyl-1,4a-dimethyl-9–(2-(4-(pyridine-2-yl) piperazin-1-yl)butyl)-1H-dibenzo[a,c]carbazole-1-carboxylic acid methyl ester [Compound 8g]
- IC50 (HepG2; 48 h): > 50 µM
- IC50 (SMMC-7721; 48 h): > 50 µM
- IC50 (Hep3B): > 50 µM

Molecule: 2,3,4,4a,9,13c-Hexahydro-7-isopropyl-1,4a-dimethyl-9–(2-(4-(pyridine-2-yl) piperazin-1-yl)propyl)-1H-dibenzo[a,c]carbazole-1-carboxylic acid methyl ester [Compound 7g]
- IC50 (HepG2; 48 h): > 50 µM
- IC50 (SMMC-7721; 48 h): > 50 µM
- IC50 (Hep3B): > 50 µM

Molecule: 2,3,4,4a,9,13c-Hexahydro-7-isopropyl-1,4a-dimethyl-9–(2-(4-benzylpiperazin -1-yl)butyl)-1H-dibenzo[a,c]carbazole-1-carboxylic acid methyl ester [Compound 8h]
- IC50 (HepG2; 48 h): > 50 µM
- IC50 (SMMC-7721; 48 h): > 50 µM
- IC50 (Hep3B): > 50 µM

Molecule: 2,3,4,4a,9,13c-Hexahydro-7-isopropyl-1,4a-dimethyl-9–(2-(4-benzylpiperazin-1-yl)propyl)-1H-dibenzo[a,c]carbazole-1-carboxylic acid methyl ester [Compound 7h]
- IC50 (HepG2; 48 h): > 50 µM
- IC50 (SMMC-7721; 48 h): > 50 µM
- IC50 (Hep3B): > 50 µM

Molecule: 2,3,4,4a,9,13c-Hexahydro-7-isopropyl-1,4a-dimethyl-9–(2-(4-ethylpiperazin -1-yl)butyl)-1H-dibenzo[a,c]carbazole-1-carboxylic acid methyl ester [Compound 8c]
- cytotoxic activity against three cancer cell lines (in words) [2]: weak or no inhibitions
- IC50 (HepG2; 48 h): > 50 µM
- IC50 (SMMC-7721; 48 h): > 50 µM
- IC50 (Hep3B): > 50 µM

Molecule: 2,3,4,4a,9,13c-Hexahydro-7-isopropyl-1,4a-dimethyl-9–(2-(4-ethylpiperazin -1-yl)propyl)-1H-dibenzo[a,c]carbazole-1-carboxylic acid methyl ester [Compound 7c]
- cytotoxic activity against three cancer cell lines (in words) [2]: weak or no inhibitions
- IC50 (HepG2; 48 h): > 50 µM
- IC50 (SMMC-7721; 48 h): > 50 µM
- IC50 (Hep3B): 40.7 ± 2.62 µM

Molecule: 2,3,4,4a,9,13c-Hexahydro-7-isopropyl-1,4a-dimethyl-9–(2-(4-formylpiperazin-1-yl)butyl)-1H-dibenzo[a,c]carbazole-1-carboxylic acid methyl ester [Compound 8e]
- IC50 ([1]; 48 h): > 50 µM
- cytotoxic activity against three cancer cell lines (in words) [2]: moderate inhibitions
- IC50 (HepG2; 48 h): 41.2 ± 3.56 µM
- IC50 (SMMC-7721; 48 h): 32.1 ± 2.78 µM
- IC50 (Hep3B): 38 ± 1.75 µM

Molecule: 2,3,4,4a,9,13c-Hexahydro-7-isopropyl-1,4a-dimethyl-9–(2-(4-formylpiperazin-1-yl)propyl)-1H-dibenzo[a,c]carbazole-1-carboxylic acid methyl ester [Compound 7e]
- IC50 ([1]; 48 h): > 50 µM
- cytotoxic activity against three cancer cell lines (in words) [2]: moderate inhibitions
- IC50 (HepG2; 48 h): 16.9 ± 1.58 µM
- IC50 (SMMC-7721; 48 h): 23.3 ± 2.35 µM
- IC50 (Hep3B): 20 ± 1.22 µM

Molecule: 2,3,4,4a,9,13c-Hexahydro-7-isopropyl-1,4a-dimethyl-9–(2-(4-phenyl piperazin-1-yl)butyl)-1H-dibenzo[a,c]carbazole-1-carboxylic acid methyl ester [Compound 8f]
- IC50 (HepG2; 48 h): > 50 µM
- IC50 (SMMC-7721; 48 h): > 50 µM
- IC50 (Hep3B): > 50 µM

Molecule: 2,3,4,4a,9,13c-Hexahydro-7-isopropyl-1,4a-dimethyl-9–(2-(4-phenyl piperazin-1-yl)propyl)-1H-dibenzo[a,c]carbazole-1-carboxylic acid methyl ester [Compound 7f]
- IC50 (HepG2; 48 h): > 50 µM
- IC50 (SMMC-7721; 48 h): > 50 µM
- IC50 (Hep3B): > 50 µM

Molecule: 2,3,4,4a,9,13c-Hexahydro-7-isopropyl-1,4a-dimethyl-9–(2-(piperazin-1-yl) butyl)-1H-dibenzo[a,c]carbazole-1-carboxylic acid methyl ester [Compound 8a]
- IC50 ([1]; 48 h): 23.4 ± 2.97 µM
- IC50 [2, 3]: < 10 µM
- IC50 [2, 4]: 2.89 to 6.1 µM
- IC50 (HepG2; 48 h): 4.8 ± 0.32 µM
- IC50 (SMMC-7721; 48 h): 6.1 ± 0.47 µM
- IC50 (Hep3B): 2.89 ± 0.27 µM

Molecule: 2,3,4,4a,9,13c-Hexahydro-7-isopropyl-1,4a-dimethyl-9–(2-(piperazin-1-yl) propyl)-1H-dibenzo[a,c]carbazole-1-carboxylic acid methyl ester [Compound 7a]
- IC50 ([1]; 48 h): 17.2 ± 1.89 µM
- IC50 [2, 3]: < 10 µM
- IC50 [2, 4]: 1.37 to 5.1 µM
- IC50 (HepG2; 48 h): 3.1 ± 0.45 µM
- IC50 (SMMC-7721; 48 h): 5.1 ± 0.18 µM
- IC50 (Hep3B): 1.37 ± 0.2 µM

Molecule: 2,3,4,4a,9,13c-Hexahydro-7-isopropyl-1,4a-dimethyl-9–(3-(4-methyl piperazin-1-yl)butyl)-1H-dibenzo[a,c]carbazole-1-carboxylic acid methyl ester [Compound 8b]
- IC50 ([1]; 48 h): > 50 µM
- IC50 (HepG2; 48 h): 19.6 ± 2.91 µM
- IC50 (SMMC-7721; 48 h): 34.9 ± 3.35 µM
- IC50 (Hep3B): 18.3 ± 1.02 µM

Molecule: COC(=O)C1(C)CCCC2(C)c3ccc(C(C)C)cc3-c3c(c4ccccc4n3CCN3CCN(C)CC3)C12 (centres unmarked) [Compound 6b, 2,3,4,4a,9,13c-Hexahydro-7-isopropyl-1,4a-dimethyl-9–(2-(4-methylpiperazin-1-yl)ethyl)-1H-dibenzo[a,c]carbazole-1-carboxylic acid methyl ester]
- IC50 ([1]; Homo sapiens, QSG7701, 48 h): 27.5 ± 1.87 µM
- IC50 [2, 5]: < 10 µM
- IC50 (HepG2; Homo sapiens, HepG2, 48 h): 11.7 ± 0.58 µM
- IC50 (SMMC-7721; Homo sapiens, SMMC-7721, 48 h): 13.2 ± 0.76 µM
- IC50 (Hep3B; Homo sapiens, Hep3B): 6.78 ± 0.42 µM

Molecule: CCN1CCN(CCn2c3c(c4ccccc42)C2C(C)(C(=O)OC)CCCC2(C)c2ccc(C(C)C)cc2-3)CC1 (centres unmarked) [Compound 6c, 2,3,4,4a,9,13c-Hexahydro-7-isopropyl-1,4a-dimethyl-9–(2-(4-ethylpiperazin-1-yl)ethyl)-1H-dibenzo[a,c]carbazole-1-carboxylic acid methyl ester]
- IC50 ([1]; Homo sapiens, QSG7701, 48 h): 41.1 ± 3.69 µM
- cytotoxic activity against three cancer cell lines (in words) [2]: moderate activity
- IC50 (HepG2; Homo sapiens, HepG2, 48 h): 17.4 ± 1.73 µM
- IC50 (SMMC-7721; Homo sapiens, SMMC-7721, 48 h): 14 ± 2.1 µM
- IC50 (Hep3B; Homo sapiens, Hep3B): 11 ± 0.65 µM

Molecule: COC(=O)C1(C)CCCC2(C)c3ccc(C(C)C)cc3-c3c(c4ccccc4n3CCN3CCCNCC3)C12 (centres unmarked) [Compound 6d, 2,3,4,4a,9,13c-Hexahydro-7-isopropyl-1,4a-dimethyl-9–(2-(1,4-diazepan-1-yl)ethyl)-1H-dibenzo[a,c]carbazole-1-carboxylic acid methyl ester]
- IC50 ([1]; Homo sapiens, QSG7701, 48 h): 22.1 ± 2.75 µM
- IC50 [2, 5]: < 10 µM
- IC50 (HepG2; Homo sapiens, HepG2, 48 h): 5.87 ± 0.42 µM
- IC50 (SMMC-7721; Homo sapiens, SMMC-7721, 48 h): 7.01 ± 0.74 µM
- IC50 (Hep3B; Homo sapiens, Hep3B): 6.31 ± 0.33 µM

Molecule: COC(=O)C1(C)CCCC2(C)c3ccc(C(C)C)cc3-c3c(c4ccccc4n3CCN3CCN(c4ccccc4)CC3)C12 (centres unmarked) [Compound 6f, 2,3,4,4a,9,13c-Hexahydro-7-isopropyl-1,4a-dimethyl-9–(2-(4-phenylpiperazin-1-yl)ethyl)-1H-dibenzo[a,c]carbazole-1-carboxylic acid methyl ester]
- IC50 (HepG2; Homo sapiens, HepG2, 48 h): > 50 µM
- IC50 (SMMC-7721; Homo sapiens, SMMC-7721, 48 h): > 50 µM
- IC50 (Hep3B; Homo sapiens, Hep3B): > 50 µM

Molecule: COC(=O)C1(C)CCCC2(C)c3ccc(C(C)C)cc3-c3c(c4ccccc4n3CCN3CCN(c4ccccn4)CC3)C12 (centres unmarked) [Compound 6g, 2,3,4,4a,9,13c-Hexahydro-7-isopropyl-1,4a-dimethyl-9–(2-(4-(pyridine-2-yl)piperazin-1-yl)ethyl)-1H-dibenzo[a,c]carbazole-1-carboxylic acid methyl ester]
- IC50 (HepG2; Homo sapiens, HepG2, 48 h): > 50 µM
- IC50 (SMMC-7721; Homo sapiens, SMMC-7721, 48 h): > 50 µM
- IC50 (Hep3B; Homo sapiens, Hep3B): > 50 µM

Molecule: COC(=O)C1(C)CCCC2(C)c3ccc(C(C)C)cc3-c3c(c4ccccc4n3CCN3CCN(Cc4ccccc4)CC3)C12 (centres unmarked) [Compound 6h, 2,3,4,4a,9,13c-Hexahydro-7-isopropyl-1,4a-dimethyl-9–(2-(4-benzylpiperazin-1-yl)ethyl)-1H-dibenzo[a,c]carbazole-1-carboxylic acid methyl ester]
- IC50 (HepG2; Homo sapiens, HepG2, 48 h): > 50 µM
- IC50 (SMMC-7721; Homo sapiens, SMMC-7721, 48 h): > 50 µM
- IC50 (Hep3B; Homo sapiens, Hep3B): > 50 µM

Molecule: COc1cccc2c1C(=O)c1c(O)c3c(c(O)c1C2=O)C[C@@](O)(C(=O)CO)C[C@@H]3O[C@H]1C[C@H](N)[C@H](O)[C@H](C)O1 [Doxorubicin, reference compound]
- IC50 ([1]; Homo sapiens, QSG7701, 48 h): 13.8 ± 0.53 µM
- IC50 (HepG2; Homo sapiens, HepG2, 48 h): 2.38 ± 0.29 µM
- IC50 (SMMC-7721; Homo sapiens, SMMC-7721, 48 h): 1.13 ± 0.11 µM
- IC50 (Hep3B; Homo sapiens, Hep3B): 1.02 ± 0.09 µM
